Bridge positions count the residues as written; N and C are the ends. Square brackets hold non-standard residues; d marks the D form. Peptide text beside a SMILES is read from it.
Each compound was assayed against T1, ANP receptor (Sus scrofa, UniProt F1SFW3) (assay: cGMP production in ANP receptor-expressing LLC-PK1 cells). Conditions: 30 min stimulation, 10^-6M through 10^-12M.
T1 construct: ANP receptor-expressing LLC-PK1 cells; endogenous in cells; host or cells: LLC-PK1 cells
T1 sequence (F1SFW3 29-1057): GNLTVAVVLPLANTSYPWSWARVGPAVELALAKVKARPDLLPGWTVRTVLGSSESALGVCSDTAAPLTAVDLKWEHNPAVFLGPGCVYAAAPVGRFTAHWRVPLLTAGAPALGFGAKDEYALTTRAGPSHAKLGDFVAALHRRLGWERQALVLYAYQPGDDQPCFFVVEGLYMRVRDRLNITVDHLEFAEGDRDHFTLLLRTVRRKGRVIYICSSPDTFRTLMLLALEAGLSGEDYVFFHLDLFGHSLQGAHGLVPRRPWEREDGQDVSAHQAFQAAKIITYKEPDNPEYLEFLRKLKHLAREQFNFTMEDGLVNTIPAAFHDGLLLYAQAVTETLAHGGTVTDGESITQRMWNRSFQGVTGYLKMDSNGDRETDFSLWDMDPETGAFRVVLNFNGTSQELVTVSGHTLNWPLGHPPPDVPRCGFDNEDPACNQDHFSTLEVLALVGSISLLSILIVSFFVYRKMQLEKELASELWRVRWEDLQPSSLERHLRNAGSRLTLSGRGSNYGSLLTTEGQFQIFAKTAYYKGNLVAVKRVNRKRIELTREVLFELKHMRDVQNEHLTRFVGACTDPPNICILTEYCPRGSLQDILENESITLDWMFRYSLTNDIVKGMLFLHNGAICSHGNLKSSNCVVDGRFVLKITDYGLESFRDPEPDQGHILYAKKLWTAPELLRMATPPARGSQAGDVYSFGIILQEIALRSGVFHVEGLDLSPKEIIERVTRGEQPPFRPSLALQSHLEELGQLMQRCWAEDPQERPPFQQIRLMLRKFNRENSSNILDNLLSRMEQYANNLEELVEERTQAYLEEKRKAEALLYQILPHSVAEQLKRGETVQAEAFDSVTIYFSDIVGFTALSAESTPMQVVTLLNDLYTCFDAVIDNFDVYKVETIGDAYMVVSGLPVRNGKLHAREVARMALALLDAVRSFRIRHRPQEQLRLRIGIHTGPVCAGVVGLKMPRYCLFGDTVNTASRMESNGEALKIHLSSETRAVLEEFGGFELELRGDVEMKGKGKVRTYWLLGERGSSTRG
Type: cell-based
Method: The bifunctional hormone was tested on ANP receptor-expressing LLC-PK1 cells and on MCR1 receptor-expressing B16-F1 cells. Both cell types were cultured 24 hours before the stimulation, in 96-well plates, at a concentration of 1.0×10^5 cells/ml. Before stimulation, cells were starved 2 hours in DPBS only and incubated 10 min in assay buffer (DPBS containing 20 mM HEPES, 0.1% BSA and 500 μM IBMX). The dose response curve of the bifunctional hormone was done for 30 minutes with concentrations of 10^−6M through 10^−12M. Supernatant was collected and cAMP (B16-F1) or cGMP (LLC-PK1) was measured with a radiolabeled kit from GE Healthcare Company.

Row | Structure (SMILES) | EC50
1 | CC[C@H](C)[C@@H]1NC(=O)[C@H](CCCNC(=N)N)NC(=O)[C@H](CC(=O)O)NC(=O)[C@H](CCSC)NC(=O)[C@H](CCCNC(=N)N)NC(=O)CNC(=O)CNC(=O)[C@H](Cc2ccccc2)NC(=O)[C@@H](NC(=O)[C@H](CO)NC(=O)[C@H](CO)NC(=O)[C@H](CCCNC(=N)N)NC(=O)[C@H](CCCNC(=N)N)NC(=O)[C@H](CC(C)C)NC(=O)[C@@H](N)CO)CSSC[C@@H](C(=O)N[C@@H](CC(N)=O)C(=O)N[C@@H](CO)C(=O)N[C@@H](Cc2ccccc2)C(=O)N[C@@H](CCCNC(=N)N)C(=O)N[C@@H](Cc2ccc(O)cc2)C(=O)N[C@@H](Cc2c[nH]cn2)C(=O)N[C@H](Cc2ccccc2)C(=O)N[C@@H](CCCNC(=N)N)C(=O)N[C@@H](Cc2c[nH]c3ccccc23)C(N)=O)NC(=O)CNC(=O)[C@H](CC(C)C)NC(=O)CNC(=O)[C@H](CO)NC(=O)[C@H](CCC(N)=O)NC(=O)[C@H](C)NC(=O)CNC1=O [SEQ ID NO: 40, S-L-R-R-S-S-[C-F-G-G-R-M-D-R-I-G-A-Q-S-G-L-G-C]-N-S-F-R-Y-H-f-R-W-NH2] | 7000 nM

Same assay, conditions: 30 min stimulation, 10^-6M through 10^-12M, NR = No response detected

Row | Structure (SMILES) | EC50
2 | CC[C@H](C)[C@@H]1NC(=O)[C@H](CCCNC(=N)N)NC(=O)[C@H](CC(=O)O)NC(=O)[C@H](CCSC)NC(=O)[C@H](CCCNC(=N)N)NC(=O)CNC(=O)CNC(=O)[C@H](Cc2ccccc2)NC(=O)[C@@H](NC(=O)[C@H](CCSC)NC(=O)[C@@H]2CCCN2C(=O)[C@H](CCCCN)NC(=O)CNC(=O)[C@H](Cc2c[nH]c3ccccc23)NC(=O)[C@H](CCCNC(=N)N)NC(=O)[C@H](Cc2c[nH]cn2)NC(C)=O)CSSC[C@@H](C(=O)N[C@@H](CC(N)=O)C(=O)N[C@@H](CO)C(=O)N[C@@H](Cc2ccccc2)C(=O)N[C@@H](CCCNC(=N)N)C(=O)N[C@@H](Cc2ccc(O)cc2)C(N)=O)NC(=O)CNC(=O)[C@H](CC(C)C)NC(=O)CNC(=O)[C@H](CO)NC(=O)[C@H](CCC(N)=O)NC(=O)[C@H](C)NC(=O)CNC1=O [SEQ ID NO: 43, Ac-H-R-W-G-K-P-M-[C-F-G-G-R-M-D-R-I-G-A-Q-S-G-L-G-C]-N-S-F-R-Y-NH2] (Ac-HRWGKPMCFGGRMDRIGAQSGLGCNSFRY-NH2; disulfide 8-24) | 86.8 nM
3 | CC[C@H](C)[C@@H]1NC(=O)[C@H](CCCNC(=N)N)NC(=O)[C@H](CC(=O)O)NC(=O)[C@H](CCSC)NC(=O)[C@H](CCCNC(=N)N)NC(=O)CNC(=O)CNC(=O)[C@H](Cc2ccccc2)NC(=O)[C@@H](NC(=O)[C@H](CO)NC(=O)[C@H](CO)NC(=O)[C@H](CCCNC(=N)N)NC(=O)[C@H](CCCNC(=N)N)NC(=O)CNC(=O)[C@H](Cc2c[nH]c3ccccc23)NC(=O)[C@H](CCCNC(=N)N)NC(=O)[C@@H](Cc2ccccc2)NC(=O)[C@H](Cc2c[nH]cn2)NC(C)=O)CSSC[C@@H](C(=O)N[C@@H](CC(N)=O)C(=O)N[C@@H](CO)C(=O)N[C@@H](Cc2ccccc2)C(=O)N[C@@H](CCCNC(=N)N)C(=O)N[C@@H](Cc2ccc(O)cc2)C(N)=O)NC(=O)CNC(=O)[C@H](CC(C)C)NC(=O)CNC(=O)[C@H](CO)NC(=O)[C@H](CCC(N)=O)NC(=O)[C@H](C)NC(=O)CNC1=O [SEQ ID NO: 39, Ac-H-f-R-W-G-R-R-S-S-[C-F-G-G-R-M-D-R-I-G-A-Q-S-G-L-G-C]-N-S-F-R-Y-NH2] (Ac-H[dF]RWGRRSSCFGGRMDRIGAQSGLGCNSFRY-NH2; disulfide 10-26) | 52.1 nM
4 | CC[C@H](C)[C@@H]1NC(=O)[C@H](CCCNC(=N)N)NC(=O)[C@H](CC(=O)O)NC(=O)[C@H](CCSC)NC(=O)[C@H](CCCNC(=N)N)NC(=O)CNC(=O)CNC(=O)[C@H](Cc2ccccc2)NC(=O)[C@@H](NC(=O)[C@H](CO)NC(=O)[C@H](CO)NC(=O)[C@H](CCCNC(=N)N)NC(=O)[C@H](CCCNC(=N)N)NC(=O)CNC(=O)[C@H](Cc2c[nH]c3ccccc23)NC(=O)[C@H](CCCNC(=N)N)NC(=O)[C@H](Cc2ccccc2)NC(=O)[C@H](Cc2c[nH]cn2)NC(=O)[C@H](CCC(=O)O)NC(C)=O)CSSC[C@@H](C(=O)N[C@@H](CC(N)=O)C(=O)N[C@@H](CO)C(=O)N[C@@H](Cc2ccccc2)C(=O)N[C@@H](CCCNC(=N)N)C(=O)N[C@@H](Cc2ccc(O)cc2)C(N)=O)NC(=O)CNC(=O)[C@H](CC(C)C)NC(=O)CNC(=O)[C@H](CO)NC(=O)[C@H](CCC(N)=O)NC(=O)[C@H](C)NC(=O)CNC1=O [SEQ ID NO: 41, Ac-E-H-F-R-W-G-R-R-S-S-[C-F-G-G-R-M-D-R-I-G-A-Q-S-G-L-G-C]-N-S-F-R-Y-NH2] (Ac-EHFRWGRRSSCFGGRMDRIGAQSGLGCNSFRY-NH2; disulfide 11-27) | 8.9 nM
5 | CC[C@H](C)[C@@H]1NC(=O)[C@H](CCCNC(=N)N)NC(=O)[C@H](CC(=O)O)NC(=O)[C@H](CCSC)NC(=O)[C@H](CCCNC(=N)N)NC(=O)CNC(=O)CNC(=O)[C@H](Cc2ccccc2)NC(=O)[C@@H](NC(=O)[C@H](CO)NC(=O)[C@H](CO)NC(=O)[C@H](CCCNC(=N)N)NC(=O)[C@H](CCCNC(=N)N)NC(=O)CNC(=O)[C@H](Cc2c[nH]c3ccccc23)NC(=O)[C@H](CCCNC(=N)N)NC(=O)[C@@H](Cc2ccccc2)NC(=O)[C@H](Cc2c[nH]cn2)NC(=O)[C@H](CCC(=O)O)NC(C)=O)CSSC[C@@H](C(=O)N[C@@H](CC(N)=O)C(=O)N[C@@H](CO)C(=O)N[C@@H](Cc2ccccc2)C(=O)N[C@@H](CCCNC(=N)N)C(=O)N[C@@H](Cc2ccc(O)cc2)C(N)=O)NC(=O)CNC(=O)[C@H](CC(C)C)NC(=O)CNC(=O)[C@H](CO)NC(=O)[C@H](CCC(N)=O)NC(=O)[C@H](C)NC(=O)CNC1=O [SEQ ID NO: 42, Ac-E-H-f-R-W-G-R-R-S-S-[C-F-G-G-R-M-D-R-I-G-A-Q-S-G-L-G-C]-N-S-F-R-Y-NH2] (Ac-EH[dF]RWGRRSSCFGGRMDRIGAQSGLGCNSFRY-NH2; disulfide 11-27) | 502 nM
6 | CC[C@H](C)[C@@H]1NC(=O)[C@H](CCCNC(=N)N)NC(=O)[C@H](CC(=O)O)NC(=O)[C@H](CCSC)NC(=O)[C@H](CCCNC(=N)N)NC(=O)CNC(=O)CNC(=O)[C@H](Cc2ccccc2)NC(=O)[C@H](Cc2c[nH]cn2)NC(=O)[C@@H](NC(=O)[C@H](CCSC)NC(=O)[C@@H]2CCCN2C(=O)[C@H](CCCCN)NC(=O)CNC(=O)[C@H](Cc2c[nH]c3ccccc23)NC(=O)[C@H](CCCNC(=N)N)NC(=O)[C@@H](Cc2ccccc2)NC(=O)[C@H](Cc2c[nH]cn2)NC(C)=O)CSSC[C@@H](C(=O)N[C@@H](Cc2ccc(O)cc2)C(=O)N[C@@H](CCCNC(=N)N)C(N)=O)NC(=O)[C@H](CO)NC1=O [SEQ ID NO: 31, Ac-H-f-R-W-G-K-P-M-[C-H-F-G-G-R-M-D-R-I-S-C]-Y-R-NH2] (Ac-H[dF]RWGKPMCHFGGRMDRISCYR-NH2; disulfide 9-20) | 74.3 nM
7 | CC[C@H](C)[C@@H]1NC(=O)[C@H](CCCNC(=N)N)NC(=O)[C@H](CC(=O)O)NC(=O)[C@H](CCSC)NC(=O)[C@H](CCCNC(=N)N)NC(=O)CNC(=O)CNC(=O)[C@H](Cc2ccccc2)NC(=O)[C@@H](NC(=O)[C@H](CO)NC(=O)[C@H](CO)NC(=O)[C@H](CCCNC(=N)N)NC(=O)[C@H](CCCNC(=N)N)NC(=O)CNC(=O)[C@H](Cc2c[nH]c3ccccc23)NC(=O)[C@H](CCCNC(=N)N)NC(=O)[C@H](Cc2ccccc2)NC(=O)[C@H](Cc2c[nH]cn2)NC(C)=O)CSSC[C@@H](C(=O)N[C@@H](CC(N)=O)C(=O)N[C@@H](CO)C(=O)N[C@@H](Cc2ccccc2)C(=O)N[C@@H](CCCNC(=N)N)C(=O)N[C@@H](Cc2ccc(O)cc2)C(N)=O)NC(=O)CNC(=O)[C@H](CC(C)C)NC(=O)CNC(=O)[C@H](CO)NC(=O)[C@H](CCC(N)=O)NC(=O)[C@H](C)NC(=O)CNC1=O [SEQ ID NO: 38, Ac-H-F-R-W-G-R-R-S-S-[C-F-G-G-R-M-D-R-I-G-A-Q-S-G-L-G-C]-N-S-F-R-Y-NH2] (Ac-HFRWGRRSSCFGGRMDRIGAQSGLGCNSFRY-NH2; disulfide 10-26) | 6.9 nM
